Like-named read-outs stand apart in the source and are kept apart here.
Tests used:
[1] = test system: WFA-induced PD-L1 upregulation in NSCLC cells; test: Pharmacologic inhibitors added to WFA, PD-L1 by flow cytometry; format: cell-based, mouse (LLC), human (H1650, A549)
[2] = test system: WFA-mediated PD-L1 and ecto-CRT increase in NSCLC cell lines; test: ROS scavenger added to WFA, PD-L1 and ecto-CRT, NSCLC; format: cell-based, mouse (LLC), human (H1650, A549); settings: 24 h; for effect on WFA-mediated PD-L1 increase: WFA + 5 mM scavenger, flow cytometry and qRT-PCR (NAC), flow cytometry (GSH)
Method: NSCLC cell lines were treated with WFA (0.6 μM in LLC, H1650 cells, 4 μM in A549 cells), or a combination of WFA+5 mM NAC for 24 h. (FIGS. 4A, 4D, 4G) The change in ROS levels were measured in LLC (FIG. 4A), H1650 (FIG. 4D), and A549 (FIG. G). (FIGS. 4B, 4E, 4H) by flow cytometry. The change in PD-L1 levels was measured in LLC (FIG. 4B), H1650 (FIG. 4E), and A549 (FIG. 4H) cell lines using flow cytometry and qRT-PCR. (FIG. 4C, 4F, 4I) Ecto-CRT levels were measured in LLC (FIG. 4C), H1650 (FIG. 4F), and A549 (FIG. 41) by flow cytometry. Means of two independent experiments ±SEM are shown, except for the PCR experiments that were repeated twice and for which one representative experiment is shown. Statistical significance was calculated using one-way ANOVA and a Fisher LSD post hoc test where * is p<0.05, ** is p<0.01,*** is p<0.001, and **** is p<0.0001.
All cells were treated with 0.6 μM WFA except A549, 4t1 and MDA-MB-231 cells which were treated with 4 μM, 1 μM, 2 μM WFA, respectively. […] PCR experiments were repeated twice, and one representative experiment is shown as mean±SEM of 3 technical replicates. Flow cytometry experiments were performed twice and the mean±SEM of two representative experiments is shown. Treatments were compared to the control using one-way ANOVA and Fisher LSD post hoc test. * p<0.05, ** p<0.01, *** p<0.001, **** p<0.0001.
To test our hypothesis, we treated NSCLC cell lines with WFA, NAC, or a combination of both.

[3] = test system: PD-L1 upregulation in MC-38, HCT-116, 4T-1, and MDA-MB-231 cell lines; test: PD-L1 with WFA and NAC in colorectal and breast cancer cell lines; format: cell-based, mouse (MC-38, 4T1), human (HCT-116; settings: 5 mM NAC; MC-38, HCT-116, 4T-1, MDA-MB-231
[4] = test system: ROS levels in NSCLC cell lines; test: ROS levels with ROS indicator CM-H2DCFDA; format: cell-based, mouse (LLC), human (H1650; settings: 24 h; WFA 0.6 μM (LLC, H1650), 4 μM (A549); NAC 5 mM

## O=[N+]([O-])c1ccc2c(c1)S(=O)(=O)C=C2 [STATTIC]
[1]; WFA + inhibitor, 24 h, STATTIC: LLC, H1650, PX-478: LLC, brusatol: LLC, H1650, A549
  effect on WFA-induced PD-L1 upregulation: neither STATTIC nor PX-478 were able to reverse

## N[C@@H](CCC(=O)N[C@@H](CS)C(=O)NCC(=O)O)C(=O)O [Glutathione, L-Glutathione]
[2]
  effect on WFA-mediated PD-L1 increase: abrogated

## CC(=O)N[C@@H](CS)C(=O)O [NAC, N-acetyl cysteine, reference compound]
[3]
  effect on WFA-mediated PD-L1 upregulation: completely reversed
[4]
  ROS levels: reduced
[2]; WFA + 5 mM NAC
  effect on WFA-induced ecto-CRT expression: completely reversed
[2]
  effect on WFA-mediated PD-L1 increase: completely reversed

## Brusatol
[1]
  effect on WFA-induced PD-L1 upregulation: completely abrogated

Reference: patent US20240293430A1, “WITHAFERIN A AND IMMUNE CHECKPOINT BLOCKER COMBINATION THERAPIES” (University of South Florida, priority 2023, published 2024)
